According to PubChem BioAssay (NCI):
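Cultured in 96-well plates, cells were exposed to test compound for 48 hours across five concentrations. Here, GI50 denotes the concentration required for 50% inhibition of growth. Definition used: TGI = concentration required for complete inhibition of growth.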

Columns and labels:
Test in all cases: NCI-60 cell line screen, 48 h
[1] = test system: OVCAR-3 ovarian
[2] = test system: SK-MEL-5 melanoma
[3] = test system: NCI-H226 lung
[4] = test system: NCI-H460 lung
[5] = test system: HL-60(TB) leukemia
[6] = test system: UO-31 renal
[7] = test system: UACC-257 melanoma
[8] = test system: MOLT-4 leukemia
[9] = test system: SNB-19 CNS
[10] = test system: MDA-MB-231 breast
[11] = test system: MDA-MB-468 breast
[12] = test system: HS 578T breast
[13] = test system: U251 CNS
[14] = test system: CCRF-CEM leukemia
[15] = test system: A498 renal
[16] = test system: TK-10 renal
[17] = test system: COLO 205 colon
[18] = test system: OVCAR-5 ovarian
[19] = test system: NCI/ADR-RES ovarian
[20] = test system: ACHN renal
[21] = test system: HOP-92 NSCLC
[22] = test system: OVCAR-8 ovarian
[23] = test system: HCT-116 colon
[24] = test system: SN12C renal
[25] = test system: HOP-62 NSCLC
[26] = test system: HCT-15 colon
[27] = test system: SF-539 CNS
[28] = test system: IGROV1 ovarian
[29] = test system: RXF 393 renal
[30] = test system: K-562 leukemia

Question: Which results are given for `O=C(Nc1ccc(OCc2ccc(F)cc2)cc1)Nc1ccc(Cl)c(C(F)(F)F)c1`?
Answer: TGI [1]: 10.6 µM; GI50 [2]: 1680 nM; TGI [2]: 3.07 µM; GI50 [3]: 2460 nM; TGI [3]: 7.87 µM; GI50 [4]: 2510 nM; TGI [4]: 6.68 µM; GI50 [5]: 2700 nM; TGI [5]: 7.29 µM; GI50 [6]: 2370 nM; TGI [6]: 10.1 µM; GI50 [7]: 2200 nM; TGI [7]: 6.68 µM; GI50 [8]: 2740 nM; TGI [8]: 13.8 µM; GI50 [9]: 3.22 µM; TGI [9]: 11.9 µM; GI50 [10]: 2460 nM; TGI [10]: 5.84 µM; GI50 [11]: 1850 nM; TGI [11]: 4.71 µM; GI50 [12]: 2880 nM; TGI [12]: 8.28 µM; GI50 [13]: 2740 nM; TGI [13]: 10.8 µM; GI50 [14]: 3.01 µM; TGI [14]: 11.3 µM; GI50 [15]: 2160 nM; TGI [15]: 6.69 µM; GI50 [16]: 3.83 µM; TGI [16]: 14.4 µM; GI50 [17]: 1820 nM; TGI [17]: 3.37 µM; GI50 [18]: 3.24 µM; TGI [18]: 12.2 µM; GI50 [19]: 2400 nM; TGI [19]: 8.36 µM; GI50 [20]: 3.21 µM; TGI [20]: 11 µM; GI50 [21]: 1880 nM; TGI [21]: 5.78 µM; GI50 [22]: 3.52 µM; TGI [22]: 13.9 µM; GI50 [23]: 3.11 µM; TGI [23]: 10.4 µM; GI50 [24]: 2880 nM; TGI [24]: 10.3 µM; GI50 [25]: 3.03 µM; TGI [25]: 11.4 µM; GI50 [26]: 2750 nM; TGI [26]: 11 µM; GI50 [27]: 3.13 µM; TGI [27]: 10.1 µM; GI50 [28]: 4.45 µM; TGI [28]: 16.2 µM; GI50 [29]: 2570 nM; TGI [29]: 7.32 µM; GI50 [30]: 3.02 µM; TGI [30]: > 100 µM
